US20040070093A1, “Process for preparing microparticles through phase inversion phenomena” (Brown University Research Foundation, priority 1995, published 2004)

Test: in vivo
Details: rat, serum, po, 25 mg/kg
Procedure: Dicumarol containing microspheres were produced as described above in Example 2, subsection 1. Equal doses of dicumarol, spray dried dicumarol and polyanhydride (FA:SA) 20:80 encapsulated dicumarol (25 mg drug/kg body weight) suspended in 1.5 ml maple syrup were fed to catheterized rats (250-350 g). Blood samples were taken at regular intervals and serum was assayed for dicumarol concentrations using a UV spectrophotometric method.

## O=c1oc2ccccc2c(O)c1Cc1c(O)c2ccccc2oc1=O [SPRAY DICUMAROL CONTROL, dicumarol]
  AUC: 232 ± 19.2 µg·h/mL
  Cmax: 17900 ± 1220 ng/mL
  Tmax: 9.42 ± 1.36 h
  half-life: 973 ± 52.2 min
